Paper PMC7681013, “Structure and kinetics of indole-3-glycerol phosphate synthase from Pseudomonas aeruginosa: Decarboxylation is not essential for indole formation” (The Journal of Biological Chemistry, 2020)

Target: T1, PaIGPS (Pseudomonas aeruginosa, UniProt P20577)
T1 construct: gene trpC
T1 sequence (P20577 1-278): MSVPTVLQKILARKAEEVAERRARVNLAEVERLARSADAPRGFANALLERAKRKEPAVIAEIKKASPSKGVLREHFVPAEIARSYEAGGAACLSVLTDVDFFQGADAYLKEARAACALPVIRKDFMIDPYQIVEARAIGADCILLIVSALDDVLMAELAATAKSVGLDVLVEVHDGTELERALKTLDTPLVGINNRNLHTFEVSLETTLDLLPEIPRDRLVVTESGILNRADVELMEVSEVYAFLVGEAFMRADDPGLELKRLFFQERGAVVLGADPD
Assay: X-ray crystal structure, […] Å
Assay type: binding
Details: active site, nonreactive substrate analog; seven of eight chains; pH 3.4 crystals

With `O=C(O)c1ccccc1NC[C@@H](O)[C@H](O)[C@H](O)COP(=O)(O)O` [rCdRP] the “X-ray crystal structure, 2.1 Å” value was “The substrate analog, rCdRP, is bound in the active site of the seven more ordered chains”.
